Test [1] concerns Panc1 cells. As to conditions: cited from earlier work. The text has this:
(§1) Several reports link USP11 to cell cycle progression and proliferation, although the detailed mechanisms are only partially understood. For example, (i) cell growth assays in MCF-7 and MDA-MB-231 cells show an increase in cell numbers upon USP11 overexpression, whereas USP11 knockdown leads to growth inhibition ([48]); (ii) USP11 itself is under cell cycle control and turns over rapidly in G1 cells, especially upon DNA damage induction, whereas expression of USP11 in S phase is high and insensitive to DNA damage ([12]). Knockdown of USP11 results in the activation of DNA damage-response pathwa ...

In a further test the test system is USP11. The conditions noted are these: cited from earlier work.
Text: as §1

The test system of test [2] is NIH3T3 cells. Briefly: Cell cycle analysis (propidium iodide, flow cytometry), NIH3T3. In kind it is cell-based. The conditions noted are these: NIH3T3, 20 μM, 24 h, n = 5. As to the method:
(§2) Cells were plated in 24-well plates (1 × 10^5 cells/well) and treated with GET-FYLIR (20 μM) for 24 h. The cells were treated with trypsin, detached from the plate, and centrifuged at 200 × g for 5 min. The supernatant was aspirated, and the cells were resuspended in PBS. The cells were fixed in 70% ethanol for 1 h at 4 °C. The cells were washed with PBS and incubated in propidium iodide staining solution (0.1% (v/v) Triton X-100, 10 μg/ml propidium iodide (Sigma), and 100 μg/ml DNase-free RNase A in PBS) for 30 min at room temperature. Cells were analyzed using an FC500 flow cytometer (Beckman Coulter) equipped with a 488-nm laser, and data from at least 10,000 cells were acquired for each sample. Cells were gated based on forward and side scatter, and doublets excluded by height/area analysis. Cell cycle percentages were calculated by curved fit using Weasel Version 3.0 (Walter and Eliza Hall Institute of Medical Research). Data shown are representative. All data sets were combined for the statistical analysis. A Sidak's multiple comparisons test was applied. N refers to the number of biological replicates. All curves and statistical analyses were produced using Prism 7 (GraphPad Software).
Background: Flow cytometry measures light scatter and fluorescence of single cells or particles in a stream.

For test [3], the system named is NIH3T3 cells. Description: Cell uptake (flow cytometry), NIH3T3. The class given is cell-based. The conditions noted are these: compared with Panc1, flow cytometry. As to the method: (§3) Cells treated with GET-FYLIR or GET-Scrambled were analyzed on an Astrios cell sorter using a 488-nm […] laser (40,000 cells; gated on live cells by forward/side scatter). Gmean was used as the average cell intensity. All data sets were combined for the statistical analysis. A Sidak's multiple comparisons test was applied. N refers to the number of biological replicates.

The test system of test [4] is Panc1 cells. Description: Cell uptake (flow cytometry), Panc1. As to conditions: 1 h and 24 h, compared with NIH3T3, flow cytometry. The class given is cell-based, human. As to the method: as §3
The subject of the next test is HeLa cells. Briefly: Confocal microscopy, intracellular localization. The class given is cell-based, human. As to conditions: 10 μM, 24 h, confocal imaging. As to the method: HeLa cells were plated onto 10-mm diameter glass coverslips (1 × 10^5 cells/coverslip). Cells treated with GET-FYLIR were fixed for 10 min in 3.7% (w/v) paraformaldehyde (Sigma), stained with 1 μg/ml Hoechst 33342 (Molecular Probes) for a further 10 min, washed, and mounted. Cells were imaged using an LSM880C confocal microscope (Zeiss, Germany). A ×63 objective lens was used with a […] laser used for Hoechst 33342 and a 561-nm DPSS laser for GET-FYLIR–transduced cells. Images were captured and processed using ZEN software (Zeiss, Germany).

The test system of test [5] is KNS-42, U87, HeLa, MCF7, Panc1, NIH3T3 and BJ6 cell lines. Briefly: Cellular delivery by GET system. In kind it is cell-based. The conditions noted are these: TAMRA-tagged peptide. The text has this: We next evaluated the effect of the FYLIR peptide ligand on cells in culture. The novel GET system, developed for highly efficient nucleic acid, protein and peptide delivery ([35]), was used to deliver the FYLIR peptide. GET is based on the use of cell-penetrating peptides modified with heparin-binding sequences, which enhance cellular uptake by endocytosis. The synthetic peptide, GET-FYLIR, designed for these studies harbored an N-terminal TAMRA fluorescent tag, for easy visualization, fused to the GET (P21 and 8 Arg ([35])) and FYLIR sequences. […] Having established efficient delivery, the peptide's effect was investigated by assessing cell viability.

The test system of test [6] is NIH3T3 cells. Description: Cell viability (Presto Blue assay), NIH3T3. The class given is cell-based. The conditions noted are these: for cell viability: 24 h, Presto Blue, n = 3. How it is done:
(§4) Cells were plated in 96-well plates (2.5 × 10^4 cells/well) and treated with GET-FYLIR (0–50 μM) for 24 h. Cells were also treated with GET-Scrambled as a control. After treatment, cells were washed with PBS and then incubated for 15 min at 37 °C with a 100-μl Presto Blue solution (10% Presto Blue, Invitrogen in Hanks' balanced salt solution, Sigma). Change in the fluorescence was measured using a plate reader with the excitation/emission wavelengths set at 560/590 nm (Infinite® 200 PRO, TECAN), with untreated cells used as a control. All data sets were combined for the statistical analysis. A Sidak's multiple comparisons test was applied. N refers to the number of biological replicates.

Another test has as its system U87 cells. Description: Cell viability (Presto Blue assay), U87. The class given is cell-based, human. The conditions noted are these: 24 h, n = 3. As to the method:
as §4

Test [7] has as its system BJ6 human dermal fibroblasts. Briefly: Cell viability (Presto Blue assay), BJ6. The class given is cell-based. As to conditions: 24 h; for cell viability: n = 3. As to the method:
as §4

For test [8], the system named is Panc1 cells. Briefly: Cell viability (Presto Blue assay), Panc1. The class given is cell-based, human. As to the method:
as §4

Test [9] deals with Panc1 cells. Briefly: Cell cycle analysis (propidium iodide, flow cytometry), Panc1. In kind it is cell-based, human. The conditions noted are these: Panc1, 20 μM, 24 h, p < 0.0001, n = 7. How it is done: as §2

*: point of attachment. 5TAMRA = CN(C)c1ccc2c(c1)Oc1cc(N(C)C)ccc1C21OC(=O)c2cc(C(=O)*)ccc21

Consider `O=C1c2c(O)ccc(O)c2C(=O)c2c(NCCNCCO)ccc(NCCNCCO)c21` [mitoxantrone], for which the cell death entry with Panc1 cells [1] is “dose-dependent cell death”. Also, the USP11 inhibition entry in the test on USP11 was “inhibits USP11”.

“5TAMRA-KRKKKGKGLGKKRDPCLRKYKRRRRRRRRAEGEFYKLKIRTPR-NH2 [GET-FYLIR]”: the “subG0 fraction” value was determined as 0.8% with NIH3T3 cells [2] (from 0.2% untreated, not significant, p = 0.9992) and 8% with Panc1 cells [9] (from 0.9% untreated). Moreover, the “fraction of cells in S phase” value in the test with NIH3T3 cells [2] (from 24.8% untreated, p < 0.0001) was 37.5%; in the test with Panc1 cells [9] (from 36.9% untreated), 52.8%. For the same molecule, the cell uptake result is “little difference in cell uptake in either cell type” with NIH3T3 cells [3] (NIH3T3, 1 μM, 1 h and 24 h); “significantly lower than Panc1 cells” with NIH3T3 cells [3] (NIH3T3, 5 μM, both incubation times); “little difference in cell uptake in either cell type” in the test with Panc1 cells [4] (Panc1, 1 μM); “increased uptake in Panc1 cells for both 1- and 24-h incubations” in the test with Panc1 cells [4] (Panc1, 5 μM). The endosomal escape result with HeLa cells is reported as “efficiently escapes endosomal vesicles”. Also, the subcellular localization entry in the test on HeLa cells was “both the cell cytoplasm and the nucleus, with the highest accumulation in nucleoli”. Further, the cellular delivery entry in test [5] is given as “efficiently delivered to all cell lines tested”. For the same molecule, the cell viability effects result is given as “cell viability effects in Panc1 but not NIH3T3 cells were observed” in the test with NIH3T3 cells [6] (NIH3T3, 5 μM, uptake experiment, 1 and 24 h); “cell viability effects in Panc1 but not NIH3T3 cells were observed” in the test with Panc1 cells [8] (Panc1, 5 μM, uptake experiment, 1 and 24 h). Moreover, the cell viability result was “retained” in the test with NIH3T3 cells [6] (NIH3T3, 10 μM); “minimal effect” in the test on NIH3T3 cells [6] (NIH3T3, 20 μM); “retained” in the test with U87 cells (U87, 10 μM); “minimal effect” with U87 cells (U87, 20 μM); “retained” in [7] (BJ6, 10 μM); “minimal effect” in [7] (BJ6, 20 μM). The “sensitivity to dose (viability)” value in test [7] (BJ6, up to 50 μM) was “relatively insensitive”; in the test on Panc1 cells [8] (Panc1, up to 50 μM, 24 h, Presto Blue), “particularly sensitive”. For the same molecule, in the test with Panc1 cells [8] (Panc1, 10 μM, 24 h, Presto Blue, n = 3 biological repeats), the loss of viability is ~50%. In the test on Panc1 cells [9] (versus untreated), the “fold increase of subG0 fraction” value is ~9 fold.

(Values after paper PMC6333900, “Discovery of peptide ligands targeting a specific ubiquitin-like domain–binding site in the deubiquitinase USP11” (The Journal of Biological Chemistry, 2018).)
